Assay results as given in PubChem BioAssay AID248 (DTP/NCI, 2004).
“And” between values parts separate entries of the source, which are not always exact repeats. Equal values may be shown once. Toxic doses and inconclusive results are not listed. Rule as the data show it: active = T/C of 150% or more; inactive = T/C below 125%.

Test system: L1210 leukemia ip in BDF1 mice, survival T/C
Assay: NCI In Vivo Anticancer Drug Screen. Data for tumor model L1210 Leukemia (intraperitoneal) in B6D2F1 (BDF1) mice
Conditions: endpoint: mean survival time, higher = longer survival
Outline: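 Tumor was transplanted into mice, which were then dosed with test compound or vehicle alone. Survival was recorded for each group, and the treated figure was expressed relative to the control figure.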

[1] = dose: 100.0 mg/kg/injection, schedule: Q01DX009 (ip), vehicle: saline with Tween-80
[2] = dose: 200.0 mg/kg/injection, schedule: Q01DX009 (ip), vehicle: saline with Tween-80
[3] = dose: 400.0 mg/kg/injection, schedule: Q01DX009 (ip), vehicle: saline with Tween-80
[4] = dose: 100.0 mg/kg/injection, schedule: Q04DX003 (ip), vehicle: saline
[5] = dose: 100.0 mg/kg/injection, schedule: Q04DX003 (ip), vehicle: saline with Tween-80
[6] = dose: 200.0 mg/kg/injection, schedule: Q04DX003 (ip), vehicle: saline with Tween-80
[7] = dose: 400.0 mg/kg/injection, schedule: Q04DX003 (ip), vehicle: saline with Tween-80
[8] = dose: 100.0 mg/kg/injection, schedule: Q04DX002 (ip), vehicle: Klucel (hydroxypropylcellulose) (HPC)
[9] = dose: 200.0 mg/kg/injection, schedule: Q04DX002 (ip), vehicle: Klucel (hydroxypropylcellulose) (HPC)
[10] = dose: 400.0 mg/kg/injection, schedule: Q04DX002 (ip), vehicle: Klucel (hydroxypropylcellulose) (HPC)
[11] = dose: 100.0 mg/kg/injection, schedule: Q01DX009 (ip), vehicle: saline
[12] = dose: 200.0 mg/kg/injection, schedule: Q01DX009 (ip), vehicle: saline

Measured: T/C

O=C(CCl)Nc1cc2ccccc2c2ccccc12
inactive: dose: 75.0 mg/kg/injection, schedule: Q01DX001 (ip), vehicle: saline 88 % of control | dose: 150.0 mg/kg/injection, schedule: Q01DX001 (ip), vehicle: saline 91 % of control | dose: 300.0 mg/kg/injection, schedule: Q01DX001 (ip), vehicle: saline 96 % of control

c1ccc2nc(NN=C3CCCCC3)ccc2c1
inactive: dose: 10.0 mg/kg/injection, schedule: Q01DX001 (ip), vehicle: saline 107 % of control | dose: 20.0 mg/kg/injection, schedule: Q01DX001 (ip), vehicle: saline 97 % of control | dose: 40.0 mg/kg/injection, schedule: Q01DX001 (ip), vehicle: saline 95 % of control

COC(=N)Cc1ccc(OC)c(OC)c1
inactive: [1] 94 % of control | [2] 89 % of control | [3] 92 % of control

COc1ccc(CC(C)=O)cc1
inactive: dose: 50.0 mg/kg/injection, schedule: Q04DX003 (ip), vehicle: saline 96 % of control | [4] 105 % of control

CCCC(C)(C)N
inactive: dose: 25.0 mg/kg/injection, schedule: Q04DX002 (ip), vehicle: saline 97 % of control | dose: 50.0 mg/kg/injection, schedule: Q04DX002 (ip), vehicle: saline 90 % of control | dose: 100.0 mg/kg/injection, schedule: Q04DX002 (ip), vehicle: saline 103 % of control

O=C(/C=C(\C(=O)c1ccccc1)c1ccccc1)c1ccc(Cl)cc1
inactive: dose: 50.0 mg/kg/injection, schedule: Q01DX009 (ip), vehicle: Klucel (hydroxypropylcellulose) (HPC) 103 % of control | dose: 75.0 mg/kg/injection, schedule: Q01DX001 (ip), vehicle: Klucel (hydroxypropylcellulose) (HPC) 100 % of control | dose: 100.0 mg/kg/injection, schedule: Q01DX009 (ip), vehicle: Klucel (hydroxypropylcellulose) (HPC) 92 % of control | dose: 150.0 mg/kg/injection, schedule: Q01DX001 (ip), vehicle: Klucel (hydroxypropylcellulose) (HPC) 95 % of control | dose: 200.0 mg/kg/injection, schedule: Q01DX009 (ip), vehicle: Klucel (hydroxypropylcellulose) (HPC) 94 % of control | dose: 300.0 mg/kg/injection, schedule: Q01DX001 (ip), vehicle: Klucel (hydroxypropylcellulose) (HPC) 108 % of control

CC12C=CC(CC1)C2O (centres undefined)
inactive: [1] 105 % of control | [5] 100 % of control | [2] 96 % of control | [6] 96 % of control | [7] 98 % of control

C(=C/c1nc2ccccc2o1)/c1ccc2c(c1)OCO2
inactive: [8] 97 % of control | [9] 97 % of control | [10] 97 % of control

CC(=O)c1ccccc1-n1c(C)ccc1C
inactive: [11] 95 % of control | dose: 100.0 mg/kg/injection, schedule: Q04DX003 (ip), vehicle: saline + alcohol 100 % of control | [12] 98 % of control | dose: 200.0 mg/kg/injection, schedule: Q04DX003 (ip), vehicle: saline + alcohol 100 % of control | dose: 400.0 mg/kg/injection, schedule: Q01DX009 (ip), vehicle: saline 98 % of control | dose: 400.0 mg/kg/injection, schedule: Q04DX003 (ip), vehicle: saline + alcohol 108 % of control

NC(=S)c1c(N)n(C2OC(CO)C(O)C2O)c2ncnc(N)c12 (centres undefined)
inactive: dose: 3.12 mg/kg/injection, schedule: Q01DX005 (ip), vehicle: saline 116 % of control | dose: 6.25 mg/kg/injection, schedule: Q01DX005 (ip), vehicle: saline 119 % of control and 124 % of control | dose: 12.5 mg/kg/injection, schedule: Q01DX005 (ip), vehicle: saline 112 % of control and 119 % of control | dose: 25.0 mg/kg/injection, schedule: Q01DX005 (ip), vehicle: saline 105 % of control | dose: 50.0 mg/kg/injection, schedule: Q01DX005 (ip), vehicle: saline 120 % of control

CCCOC(CN)C(Cl)(Cl)Cl (centres undefined)
inactive: dose: 50.0 mg/kg/injection, schedule: Q01DX009 (ip), vehicle: saline 98 % of control | [11] 96 % of control | [4] 97 % of control | [12] 96 % of control | dose: 200.0 mg/kg/injection, schedule: Q04DX003 (ip), vehicle: saline 92 % of control

CCC(C)c1ccc(O)c(C(C)CC)c1 (centres undefined)
inactive: [1] 106 % of control | [5] 106 % of control | [2] 101 % of control | [6] 101 % of control | [3] 102 % of control | [7] 94 % of control

COC(=O)NC1CC(OC2CC(O)(C(C)=O)Cc3c(O)c4c(c(O)c32)C(=O)c2c(OC)cccc2C4=O)OC(C)C1O (centres undefined)
inactive: dose: 2.0 mg/kg/injection, schedule: Q04DX003 (ip), vehicle: water 105 % of control | dose: 3.12 mg/kg/injection, schedule: Q01DX009 (ip), vehicle: saline with Tween-80 103 % of control | dose: 4.0 mg/kg/injection, schedule: Q04DX003 (ip), vehicle: water 106 % of control | dose: 8.0 mg/kg/injection, schedule: Q04DX003 (ip), vehicle: water 112 % of control | dose: 12.5 mg/kg/injection, schedule: Q01DX009 (ip), vehicle: saline with Tween-80 124 % of control | dose: 16.0 mg/kg/injection, schedule: Q04DX003 (ip), vehicle: water 109 % of control and 111 % of control | dose: 18.75 mg/kg/injection, schedule: Q04DX003 (ip), vehicle: saline with Tween-80 112 % of control | dose: 25.0 mg/kg/injection, schedule: Q01DX009 (ip), vehicle: saline with Tween-80 120 % of control | dose: 32.0 mg/kg/injection, schedule: Q04DX003 (ip), vehicle: water 110 % of control | dose: 37.5 mg/kg/injection, schedule: Q04DX003 (ip), vehicle: saline with Tween-80 118 % of control | dose: 50.0 mg/kg/injection, schedule: Q01DX009 (ip), vehicle: saline with Tween-80 122 % of control | dose: 64.0 mg/kg/injection, schedule: Q04DX003 (ip), vehicle: water 110 % of control | dose: 75.0 mg/kg/injection, schedule: Q04DX003 (ip), vehicle: saline with Tween-80 118 % of control | dose: 150.0 mg/kg/injection, schedule: Q04DX003 (ip), vehicle: saline with Tween-80 115 % of control | dose: 125.0 micrograms/kg/injection, schedule: Q04DX003 (ip), vehicle: water 102 % of control | dose: 250.0 micrograms/kg/injection, schedule: Q04DX003 (ip), vehicle: water 107 % of control | dose: 500.0 micrograms/kg/injection, schedule: Q04DX003 (ip), vehicle: water 101 % of control | dose: 1000.0 micrograms/kg/injection, schedule: Q04DX003 (ip), vehicle: water 103 % of control | dose: 2000.0 micrograms/kg/injection, schedule: Q04DX003 (ip), vehicle: water 106 % of control
active: dose: 6.25 mg/kg/injection, schedule: Q01DX009 (ip), vehicle: saline with Tween-80 178 % of control

CC1(C)CCc2cc(C(=O)O)ccc2O1
inactive: dose: 50.0 mg/kg/injection, schedule: Q01DX001 (ip), vehicle: saline 100 % of control | dose: 100.0 mg/kg/injection, schedule: Q01DX001 (ip), vehicle: saline 100 % of control | dose: 200.0 mg/kg/injection, schedule: Q01DX001 (ip), vehicle: saline 103 % of control | dose: 400.0 mg/kg/injection, schedule: Q01DX001 (ip), vehicle: saline 100 % of control

O=C(Nc1ccc(Cl)c(Cl)c1)OCc1cc[n+]([O-])cc1
inactive: [8] 103 % of control | [9] 98 % of control | [10] 106 % of control

CCOC(=O)CC(C(C)=O)P(=O)(OCC)OCC (centres undefined)
inactive: dose: 50.0 mg/kg/injection, schedule: Q01DX009 (ip), vehicle: saline + alcohol 96 % of control | dose: 100.0 mg/kg/injection, schedule: Q01DX009 (ip), vehicle: saline + alcohol 96 % of control | dose: 200.0 mg/kg/injection, schedule: Q01DX009 (ip), vehicle: saline + alcohol 92 % of control

O=C(Nc1ncccn1)Nc1cccc2ccccc12
inactive: dose: 12.5 mg/kg/injection, schedule: Q04DX002 (ip), vehicle: Klucel (hydroxypropylcellulose) (HPC) 102 % of control | dose: 25.0 mg/kg/injection, schedule: Q04DX002 (ip), vehicle: Klucel (hydroxypropylcellulose) (HPC) 97 % of control | dose: 50.0 mg/kg/injection, schedule: Q04DX002 (ip), vehicle: Klucel (hydroxypropylcellulose) (HPC) 97 % of control | [8] 92 % of control | [9] 92 % of control | [10] 95 % of control

CCC(=O)OCc1cc2ccccc2c(-c2c(OC(=O)CC)c(COC(=O)CC)cc3ccccc23)c1OC(=O)CC
inactive: dose: 100.0 mg/kg/injection, schedule: Q01DX001 (ip), vehicle: saline with Tween-80 106 % of control | dose: 200.0 mg/kg/injection, schedule: Q01DX001 (ip), vehicle: saline with Tween-80 113 % of control | dose: 400.0 mg/kg/injection, schedule: Q01DX001 (ip), vehicle: saline with Tween-80 88 % of control
